How the values were obtained:
HUVEC cells [1] = assay: Cell viability assay (MTS); type: cell-based, human; conditions: for reduction of cell viability at the higher dose tested: time at which it starts (in words): 50 µM peptide, 24 h and 48 h
Protocol: HUVECs were maintained in EGM®-2 BulletKit® medium. Cells were grown to 80% confluence at 37 °C in a humid atmosphere in the presence of 5% CO2. Passages 2–5 were used. Cells were starved for 12 h, using endothelial cell basal medium (EBM®-2 basal medium, 0,2% Fetal Bovine Serum) before all experiments.
The MTS assay (CellTiter 96® AQueous One Solution, Promega) was performed to compare the viability of cells treated with different concentrations of peptides (VEGF73-101, VEGF84-101 VEGFQ79G, and VEGFI83G) and CuSO4, and their complexes. We considered two different growth conditions for our treatments to be examined, to which we refer in this paper as proliferation conditions or survival conditions. Proliferation condition: Cells (3 replicates) were seeded in 96-well plates at a density of 1.5 × 10^3 cell/well, treated in EGM®-2 BulletKit®, 2% Fetal Bovine Serum (FBS) without VEGF supplementation. Survival condition: Cells (3 replicates) were seeded in 96-well plates at a density of 3 × 10^3 cell/well in an EBM®-2 basal medium of 0.2% FBS without supplements and VEGF. MTS assay was used following 24 h or 48 h of treatments according to the manufacturer’s instructions. The required copper and peptides were pre-mixed together in water in order to allow peptide/copper complexes formations before their addition to the cells. When the experiments were performed in the presence of bathocuproine disulfonic acid disodium salt (BCS), in proliferation condition, 50 µM of the copper chelator was added during the treatment for 24 h. The results were reported as the percentage of viable cells, with respect to the control set, to 100%.

HUVEC cells [2] = assay: Annexin V-FITC/PI staining, flow cytometry; type: cell-based, human; conditions: 72 h; for induction of apoptosis (in words): 5 µM peptide, EBM-2 0.2% FBS, PI/Annexin V, two experiments in triplicate
Protocol: Annexin V/ PI is a commonly used approach for studying apoptotic cells. Propidium iodide (PI) is widely used in conjunction with Annexin V to determine if cells are viable, apoptotic, or necrotic through differences in plasma membrane integrity and permeability. The fluorescence of AnnexinV-FITC/PI assay was read using flow cytometry. HUVEC cells were seeded on a 12-well plate at a density of 2.5 ×10^4 and grown for 48 h before treatments. During the last 24 h cells were starved in the same EBM-2 basal medium containing 0.2% fetal bovine serum without EC (endothelial cell) supplements. Cells were then exposed to 5 µM peptide for 72 h. When required, 10 µM CuSO4 was used in combination with peptides. Five hours of incubation in the presence of 1 µM STS (staurosporine) was used as a positive control for cell death. Cells were harvested and stained with Annexin V-FITC (Fluorescein isothiocyanate) and propidium iodide using an annexin V-FITC apoptosis detection kit (Life technologies, Monza (MB), Italy), following the manufacturer’s instructions. Briefly, cells were pelleted and resuspended in 800 µL PBS buffer containing 20 µL of annexin V, 20 µL of propidium iodide, and PI (Annexin V/Dead Cell Apoptosis Kit (Invitrogen), and kept for 10 min at 25 °C in the dark. Samples were analyzed within 1 h by flow cytometry using a CyFlow® ML (Sysmex Partec Milan-Italy). The fluorescent scatter plots indicated three types of cell populations: viable (Annexin V-FITC−/PI−), dead (Annexin V-FITC + /PI+), and apoptotic (Annexin V-FITC + /PI−). Quadrant analysis (FlowMax software -Partec) was performed on the gated fluorescent scatter plot to examine the percentage of live, dead, and apoptotic cell populations. Experiments were repeated twice in triplicate.
Sample were analyzed, 2 × 10^4 cells per sample, using a CyFlow® ML flow cytometer (Partec) system equipped with three laser sources and 10 optical parameters with dedicated filter setting and a high numerical aperture microscope objective (50× NA 0.82) for the detection of different scatter and fluorescence signals. […]

[3] = RP-HPLC retention time on PepMap C18 column (UHPLC-ESI MS) as a measure of peptide hydrophobicity; type: physicochemical; conditions: used by the paper as measure of relative hydrophobicity, amidated-acetylated peptides, PepMap C18 column 300Å (75 μm × 150 mm), linear gradient 2% to 99% B (20% water–80% acetonitrile) with 0.1% FA over 40 min, 0.3 µL/min, 40 °C
Protocol: Here, we tested peptide lipophilic features by high-performance liquid chromatography using a reverse phase RP18 column.
To evaluate the relative hydrophobicity of the peptides, the retention times of amidated-acetylated peptides were recorded on a PepMap C18 column 300Å (75 μm × 150 mm) using a linear gradient from 2% to 99% of B (20% water–80% acetonitrile) containing 0.1% FA over 40 min, at a flow rate of 0.3 µL/min. The injection volume was 5 μL for analysis. The Q-exactive mass spectrometer was equipped with nano electrospray ion source (Nano EASY-Spray). The thermostatted column compartment was at 40 °C. The optimized parameters of mass spectrometry were illustrated as below: spray voltage, + 3.0 kV; capillary temperature, 250 °C; full MS; resolution, 70,000; automatic gain control (AGC) target, 3.0 × 10^6; maximum injection time (IT), 200 ms; scan range, 150–2000m/z. Nitrogen was used for spray stabilization. All data collected in profile mode were acquired and processed using Thermo Xcalibur 3.0 software.

[4] = Model membrane permeabilization assay: release of 6-carboxyfluorescein from dye-filled LUVs; conditions: 10 µM peptide, 200 µM LUVs 5:3:2 POPC/POPE/POPS, 10 mM phosphate buffer, 100 mM NaCl, pH 7.4, 25 °C, after 800 min, fluorescence λex 494/λem 520 nm, average of three experiments
Protocol: Figure 2 Dye release (membrane leakage) from model membranes induced by VEGF73-101, VEGF84-101, VEGFQ79G, and VEGFI83G. Kinetics of dye release from 200 µM LUVs of 5:3:2 POPC/POPE/POPS in the presence of 10 µM of each peptide. All experiments were performed in 10 mM phosphate buffer, 100 mM NaCl, pH 7.4, at 25 °C. Results are the average of three experiments.
Figure 7 Peptide induced release of 6-carboxyfluorescein from 200 μM POPC:POPE:POPS LUVs measured in the presence of (a) 10 μM peptides/Cu and (b) 10 μM VEGF73-101 (magenta curve) and its 1:1 Cu(II) complex (black curve), 10 μM VEGFI83G (green curve) and its 1:1 Cu(II) complex (blue curve). Experiments were in triplicate at 25 °C in 10 mM phosphate buffer, 100 mM NaCl, pH 7.4.
Model membranes were prepared according to a procedure described elsewhere. To mimic the lipid composition of endothelial cell membranes, we used POPC:POPE:POPS (5:3:2 molar ratio) lipid mixture. Multilamellar vesicles (MLVs) were obtained by vortexing a chloroform lipid solution under a gentle nitrogen flow. Next, the lipid solution was dried overnight in a vacuum at room temperature in a round-bottomed flask to remove all the residual solvent. […] Pore formation in the lipid bilayer was monitored by measuring the increase in fluorescence emission intensity due to dye dilution (dequenching) in the buffer upon membrane leakage. […]

[5] = survival conditions (EBM2, 0.2% FBS without growth factors), MTS

Row | Compound | RP-HPLC retention time tR [3] [min] | cell viability of Cu(II) alone (in words) (HUVEC cells [1]; 24 h, same concentrations as in the complexes, survival and proliferation conditions, MTS (Figure 9)) | induction of apoptosis (in words) (HUVEC cells [2]) | reduction of cell viability at the higher dose tested: time at which it starts (in words) (HUVEC cells [1]; [5]) | live cells in the presence of Cu(II) (in words) (HUVEC cells [2]; peptide 5 µM with copper(II) 10 µM, PI/Annexin V (Figure 10)) | dye release (membrane leakage) [4] [%] | cell viability (in words) (HUVEC cells [1]; 5 µM peptide, 48 h, survival conditions (EBM2, 0.2% FBS without growth factors), MTS) | effect of the copper chelator BCS on the peptide's effect on cell viability (in words) (HUVEC cells [1]; BCS 50 µM, 24 h, proliferation conditions, no added copper, MTS (Figure S10))
1 | O=S(=O)([O-])[O-].[Cu+2] [Cu(II), copper sulfate, reference compound] | – | had no effects | – | – | – | – | – | –
2 | Ac-KPHQGQHIGEMSFLQHNK-NH2 [VEGF84-101] | 18.2 | – | Neither the shorter sequence (VEGF84-101), nor the single mutated peptides induced apoptosis | all peptides (except VEGF84-101) were able to reduce cell viability | – | – | – | –
3 | Ac-ESNITMQIMRIKPHQGQHIGEMSFLQHNK-NH2 [VEGF73-101] | 21.7 | – | able to induce apoptosis | starting at 24 h | caused a decrease in live cells | ~5 | significantly decrease cell viability | not significantly altered by BCS

Continued, in another order:

Row | RP-HPLC retention time tR [3] [min] | Compound | cell viability of Cu(II) alone (in words) (HUVEC cells [1]; 24 h, same concentrations as in the complexes, survival and proliferation conditions, MTS (Figure 9)) | induction of apoptosis (in words) (HUVEC cells [2]) | reduction of cell viability at the higher dose tested: time at which it starts (in words) (HUVEC cells [1]; [5]) | live cells in the presence of Cu(II) (in words) (HUVEC cells [2]; peptide 5 µM with copper(II) 10 µM, PI/Annexin V (Figure 10)) | dye release (membrane leakage) [4] [%] | cell viability (in words) (HUVEC cells [1]; 5 µM peptide, 48 h, survival conditions (EBM2, 0.2% FBS without growth factors), MTS) | effect of the copper chelator BCS on the peptide's effect on cell viability (in words) (HUVEC cells [1]; BCS 50 µM, 24 h, proliferation conditions, no added copper, MTS (Figure S10))
4 | 21.4 | Ac-ESTNIMGIMRIKPHQGQHIGEMSFLQHNK-NH2 [VEGFQ79G, VEGF73-101 with point mutation in position 79 (Gln-Gly)] | – | – | starting at 48 h | – | – | – | –
5 | 20.4 | Ac-ESTNIMQIMRGKPHQGQHIGEMSFLQHNK-NH2 [VEGFI83G, VEGF73-101 with point mutation in position 83 (Ile-Gly)] | – | – | starting at 24 h | – | – | – | –

— article PMC7216235, “The Ionophoric Activity of a Pro-Apoptotic VEGF165 Fragment on HUVEC Cells” (International Journal of Molecular Sciences, 2020)
